Where two headings read alike, the source gives them in different places.
Columns and labels:
Parkinson's model rats [1] = experiment: Stride length measurement, rotenone-induced PD rat model; type: in vivo; details: day 30
Protocol: (§1) PD was simulated in rats by IP injection of rotenone (3 mg/kg/day) for 11 days. […] On day 30 of the experiment, stride length was recorded based on the spatial distance a paw travels during a stride. Animal forepaws were dipped in black non-toxic ink. The length of forelimb and hindlimb steps in the left and right limbs were measured while walking on a clean piece of paper. Stride length was defined as the distance between each step on the same side of the animal’s body, measured from the mid-digit toe of the first step to the heel of the second.

Parkinson's model rats [2] = experiment: Open field test, rotenone-induced PD rat model; type: in vivo; details: 60-minute observation
Protocol: as §1
An open-field device with 16 sub-squares (40 × 40 × 30 cm; Accuscan Instruments, Columbus, OH, USA) was utilized to examine forelimb and hindlimb locomotor impairments in rats following 30 days of PD induction. Prior to the test, each rat was left in its home cage in the testing area for 2 h before being gently carried by the base of its tail to the center of the open field arena. The animal behavior was then studied for 60 min. To measure the rat’s ambulatory distance, the total number of squares crossed was recorded. Additionally, one of the non-motor characteristics of PD that has been investigated is anxiety, which is indexed by the preference exploration of the open field’s periphery. The number of individuals crossing the center zone was noted.

[3] = In vivo pharmacokinetic study of Sel in plasma and brain; details: for AUC(0-t): AUC0–480min; for AUC(0-inf): AUC0–∞; for k el: Kel
Protocol: All animal experiments were conducted in compliance with the guidelines of the ethical committee, Faculty of Pharmacy, University of Sadat City (approval number RERC-FOP-USC-24-02-08). Adult male albino rats (200 g ± 10%) were randomly divided into two groups each of 48 animals. Animals were subjected to anesthesia using sodium thiopental via intraperitoneal injection (IP). […] At each time point, blood samples were collected from 6 animals by cardiac puncture on heparinized tube and then animals were sacrificed. Blood samples were centrifuged at 9000 rpm and the obtained plasma was stored at −80 °C until analysis. The whole brain was isolated, washed with saline, and homogenized at 10,000 rpm in ice-cold PBS (pH 7.4) for 5 min. The homogenate obtained was centrifuged at 9000 rpm for 15 min. Sel concentration in plasma and brain was quantified using LCMS/MS [49, 50]. The maximum drug concentration (Cmax), time required to achieve Cmax (Tmax), area under the concentration-time curve (AUC0–480min and AUC0–∞), mean residence time (MRT), and elimination rate constant (Kel) in both plasma and brain were calculated. All pharmacokinetics data were calculated using the pharmacokinetic software PK Solver-Add Ins for Microsoft Excel 2007. Additionally, absolute bioavailability as well as the Direct-Transport Percentage (DTP%) and Drug-Targeting Efficiency percentage (DTE%) were calculated using the following equations [51]:DTE = (AUCbrain/AUCplasma) IN/(AUCbrain/AUCplasma) IV × 100(2) DTP% = BIN − BX/BIN × 100(3) where BX = BIV/PIV × PIN
BX is the brain AUC0–480min fraction contributed by systemic circulation, following IN administration; BIV is the brain AUC0–480min following IV administration; PIV is the plasma AUC0–480min following IV administration; BIN is the brain AUC0–480min following IN administration; PIN is the plasma AUC0–480min following IN administration.

dopamine = type: in vivo, rats
Protocol: as §1
(§2) On day 30 of the experiment, rats were scarified and brain tissues were collected. Brain tissues were homogenized as previously described and the concentration of dopamine in the brain homogenate was assessed by HPLC-equipped with a fluorescence detector set at excitation/emission wavelengths of 280/315 nm as described elsewhere. Catalase activity in brain homogenate was measured using colorimetric assay at 570 nm using hydrogen peroxide.

catalase = type: in vivo, rats
Protocol: as §1, §2

Parkinson's model rats [4] = experiment: Paw placement and coverage, rotenone-induced PD rat model; type: in vivo; details: day 30
Protocol: as §1
On day 30, the distance between the location of the behind paw and the previously placed contralateral front paw was measured during the same step cycle while the area covered when the forelimbs or hindlimbs perform a stride was recorded as the coverage area.

Parkinson's model rats [5] = experiment: Catalepsy test (bar method), rotenone-induced PD rat model; type: in vivo; details: scale 0 to 5
Protocol: as §1
The catalepsy score was determined using the bar method, which involved measuring the time that rat consumed to remove its forepaws from the rod. The rats were rated on a five-point scale: 0 (0–5 s), 1 (6–15 s), 2 (16–25 s), 3 (26–35 s), 4 (36–60 s), and 5 (>60 s). The rat’s forepaws were gently put on a steel rod positioned 10 cm above the bench. The recording begins when cataleptic animals have been held in this position for at least 30 s (the adapting time).

MAO-B = type: in vivo, rats; details: rotenone 3 mg/kg/day IP 11 days; treatment days 12 and 20; day 30; ELISA
[6] = male, albino, rat, in vivo, iv, 1 mg/kg
[7] = male, albino, rat, in vivo, iv, 1 mg/kg, brain, rat brain, Sel 1 mg/kg, route as in label
[8] = male, albino, rat, in vivo, iv, 1 mg/kg, plasma, rat plasma, Sel 1 mg/kg, route as in label
[9] = rotenone 3 mg/kg/day IP 11 days, treatment days 12 and 20, day 30, mean ± SE (n = 6)

With `C#CCN(C)[C@H](C)Cc1ccccc1` [IV Sel solution, Selegiline] the “Stride length, left forelimb” value (Parkinson's model rats [1]) was 119.5 ± 2.66 mm, the “Number of center crossings” value (Parkinson's model rats [2]) was 8.33 ± 1.49 and the Tmax [3, 6] was 0.5 h. It also gave a bioavailability [3, 6] of 100%, an AUC(0-t) [3, 7] of 850 ± 60 ng·h/mL and an AUC(0-t) [3, 8] of 1160 ± 90 ng·h/mL. The AUC(0-inf) [3, 7] was 1220 ± 150 ng·h/mL, the AUC(0-inf) [3, 8] was 1540 ± 210 ng·h/mL and the k el [3, 7] was 4.44e-05 s⁻¹. For the same molecule, the k el [3, 8] was 4.72e-05 s⁻¹, the MRT [3, 7] was 4.56 ± 0.75 h and the MRT [3, 8] was 4.22 ± 0.84 h. For the same molecule, the “Cmax, brain” value ([3]; rat brain, Sel 1 mg/kg, route as in label) was 210 ± 30 ng/mL, the “Dopamine concentration in brain tissue” value (dopamine; rat, in vivo) was 125.33 ± 3.71 ng/g and the “Catalase activity in brain tissue” value (catalase; rat, in vivo) was 24 ± 0.82 U/mg protein. The “Paw placement, left side” value (Parkinson's model rats [4]) was 12 ± 0.57 mm, the “Paw placement, right side” value (Parkinson's model rats [4]) was 11.66 ± 1.05 mm and the Catalepsy score (Parkinson's model rats [5]) was 2.11 ± 0.11.
In the case of `C=C(C)[C@H]1Cc2c(ccc3c2O[C@@H]2COc4cc(OC)c(OC)cc4[C@@H]2C3=O)O1` [rotenone], the “Stride length, left forelimb” value (Parkinson's model rats [1]) is reported as 102 ± 4.2 mm, the “Number of center crossings” value (Parkinson's model rats [2]) is reported as 3.00 ± 1.91 and the “Dopamine concentration in brain tissue” value (dopamine; [9]) is reported as 49.66 ± 3.23 ng/g. The “Catalase activity in brain tissue” value (catalase; [9]) was 12 ± 0.85 U/mg protein, the “Paw placement, left side” value (Parkinson's model rats [4]) was 24.66 ± 2.02 mm and the “Paw placement, right side” value (Parkinson's model rats [4]) was 30.33 ± 2.95 mm. For the same molecule, the Catalepsy score (Parkinson's model rats [5]) was 4.78 ± 0.17 and the “MAO-B level in brain tissue” value (MAO-B) was 256.33 ± 25.6 ng/g.
